Measured values reported in patent US7153826B2, “Treatment of rosacea” (Seatek Marine Biotechnology, Inc., priority 2000, dated 2006).
[ ]: non-standard residue; d: D form. Orn = NCCC[C@H](N)C(=O)O

Key:
[1] = tested on: rosacea; experiment: Topical treatment of a human subject with moderately severe rosacea and pustular lesions (Example 1); assay type: in vivo
Description: The effectiveness of a cyclic decapeptide antibiotic for treating rosacea was determined on a human subject afflicted, for two years duration, with moderately severe rosacea and pustular lesions. […] The subject received topical metronidazole in a carbomer gel composition (Metrogel™) applied in the morning. Topical loloatin B (which was obtained by fermentation of the Bacillus deposited as ATCC 55797 generally following the methods described in WO98/04584) was applied in the evening. The loloatin was first dissolved in a minimal amount of alcohol which was then mixed with Lubriderm™ lotion to provide 1% w/v formulation.

[2] = tested on: rosacea; details: metronidazole administered topically twice daily; cited from earlier work
[3] = tested on: rosacea; experiment: Topical treatment of a subject afflicted with rosacea, two-year trial period (Example 2); assay type: in vivo, human
Text: A subject afflicted with rosacea received topical Metrogel™ overlayed with Lubriderm™ lotion in the morning and 1% loloatin B formulated in Lubriderm™ (as described above) in the evening. […] With this combined treatment, the rosacea was controlled such that only a few lesions were present at any given time, and complete remissions of several days duration became common.

Cc1ncc([N+](=O)[O-])n1CCO [metronidazole, reference compound]
benefit of previous treatments ([1]; previous treatments with metronidazole, same subject): without benefit | patients who do not benefit from treatment [2]: about 50%

cyclo[L-Val-L-Orn-L-Leu-D-Tyr-L-Pro-L-Phe-D-Phe-L-Asn-L-Asp-L-Trp] (cyclo(V[Orn]L[dY]PF[dF]NDW); SMILES CC(C)C[C@@H]1NC(=O)[C@H](CCCN)NC(=O)[C@H](C(C)C)NC(=O)[C@H](Cc2c[nH]c3ccccc23)NC(=O)[C@H](CC(=O)O)NC(=O)[C@H](CC(N)=O)NC(=O)[C@@H](Cc2ccccc2)NC(=O)[C@H](Cc2ccccc2)NC(=O)[C@@H]2CCCN2C(=O)[C@@H](Cc2ccc(O)cc2)NC1=O) [loloatin B]
improvement in the rosacea on reinstituting the regimen ([1]; each time once daily Metrogel and once daily loloatin was reinstituted): significant improvement | improvement in the rosacea ([1]; topical Metrogel in the morning plus 1% w/v loloatin B in Lubriderm lotion in the evening, after one month): Significant improvement | control of the condition ([3]; combined Metrogel morning / 1% loloatin B evening, throughout the trial period (two years)): effectively controlled | healing time of the lesions ([3]; combined treatment Metrogel morning / 1% loloatin B evening): 2 to 3 days | course of the rosacea ([3]; topical Metrogel overlayed with Lubriderm in the morning plus 1% loloatin B in Lubriderm in the evening): Progressive improvement
